Measured values taken from patent US20210163453A1, “DERIVATIVES OF PAPAVERINE THAT ARE EFFECTIVE HYPOXIC TUMOR RADIOSENSITIZERS” (Ohio State Innovation Foundation, priority 2018, published 2021).
Entries after “also recorded” stand apart in the source; their conditions may differ. Counter-ions that a name gives are not always drawn.

Columns and labels:
mitochondrial complex 1 = assay: Seahorse OCR inhibition of PPV derivatives, normalized to PPV; assay type: cell-based; settings: for Inhibitory activity OCR % of PPV: Seahorse, OCR inhibition at 10 μM concentration, normalized to PPV
Procedure: (§1) FIGS. 7A-7D show OCR and cellular toxicity data. […]. Bars represent mean OCR and PDE10 inhibitory activities from at least 5 (OCR) or 3 (PDE) replicates. All experiments were repeated at least twice. […] Values are mean+−SEM.
(§2) Seahorse analysis of the OCR. Oxygen consumption rate (OCR) was measured using Seahorse XF96 Flux Analyzer (Agilent Technologies). The cells were seeded to attach overnight, wells were washed with pre-warmed XF Calibrant (Agilent Technologies) and the replaced with unbuffered Assay Medium (pH 7.4, 5 mM glucose, 1 mM L-glutamine). The plates were incubated at 37° C. in a CO2-free incubator for 2 hours prior to assay. For succinate rescue assay, cells were permeabilized using XF Plasma Membrane Permeabilizer Reagent (XF PMP, Agilent Technologies) according to the manufacturer's instructions. The OCR rate was measured in 1× Mitochondrial Assay Solution (MAS) (70 mM sucrose, 220 mM mannitol, 10 mM KH2PO4, 5 mM MgCl2, 2 mM Hepes, 0.6% (w/v) fatty acid-free BSA and 1 mM EGTA; pH 7.4). After baseline oxygenation was established, 1 μM rotenone or 10 μM PPV was injected at time A, followed by 5 mM succinate at time B. Error bars represent standard deviation. For the washout experiment, EO771 cells were seeded overnight, then treated with 10 μM PPV or 1 μM rotenone 3 hours prior to OCR measurement. Media was replaced 1 and 2 hours before measurement and OCR reported.
Because PPV's effect on mitochondrial function is independent of cAMP levels it was reasoned that there are two activities in PPV, one inhibiting complex 1 and one inhibiting PDE10A that may reside in different parts of the molecule. The structure activity relationship of PPV relative to two assays was assessed: inhibition of cellular OCR by Seahorse, and inhibition of PDE10A by purified enzyme activity in multiwell plate (PDE10A activity assay kit, BPS Bioscience). Because PPV can compete with rotenone as complex 1 inhibitors, it was reasoned that they may be binding the same site and therefore the structures would be similar relative to the mitochondrial binding target. […] Because the top was a planar structure similar to that of rotenone, and they compete with each other for the same binding pocket on complex 1 (FIG. 10) the lower portion of the molecule and how it may resemble rotenone were investigated in more detail. It was established that flexible linkage was preferred for mitochondrial activity and bulky adducts to the lower benzene ring may block it (FIG. 7C). […] These lead compounds were synthesized from commercial precursors and purified on silica gel column. Structures were confirmed by ^1H NMR and found to be >95% pure by HPLC.

PDE10A = biological target: T1, PDE10A (Homo sapiens, UniProt Q9Y233); assay: PDE10A enzymatic assay (PDE10A activity assay kit, BPS Bioscience); assay type: biochemical; settings: for Inhibitory activity PDE10A % of PPV: PDE10A inhibition at 1 μM, normalized to PPV
T1 construct: purchased BPS Bioscience
Procedure: FIGS. 7A-7D show OCR and cellular toxicity data. […] Bars represent mean OCR and PDE10 inhibitory activities from at least 5 (OCR) or 3 (PDE) replicates. All experiments were repeated at least twice. […] Values are mean+−SEM. […]
The structure activity relationship of PPV relative to two assays was assessed: inhibition of cellular OCR by Seahorse, and inhibition of PDE10A by purified enzyme activity in multiwell plate (PDE10A activity assay kit, BPS Bioscience). […] These lead compounds were synthesized from commercial precursors and purified on silica gel column.

A549 cells = assay: Seahorse OCR in A549 cells (dose response, IC50, washout); assay type: cell-based, Human
[1] = Cellular toxicity of PPV derivatives by trypan blue; assay type: cell-based; settings: 10 uM, 72 h
Procedure: as §1
Experimental: Cell lines. All cell lines were purchased from the American Type Culture Collection (ATCC) and grown DMEM (Corning) supplemented with 10% FBS (Seradigm) and 1% Penicillin/Streptomycin (Fisher Bioreagents) at 37° C. in 5% CO2. Cells were treated with inhibitors papaverine hydrochloride (Sigma-Aldrich), rotenone (Sigma-Aldrich), piericidin A (Santa Cruz), capsaicin (Sigma-Aldrich), antimycin A (Sigma-Aldrich) and succinic acid disodium salt (Sigma-Aldrich). Cell viability was assessed by trypan blue exclusion.

EO771 tumors [2] = assay: Pimonidazole staining, hypoxic fraction of EO771 tumors; assay type: in vivo, mice; settings: orthotopic EO771, immune-competent mice, 2 mg per kg
Procedure: (§3) P values were calculated against thigh muscle with two-tailed two-sample t test. FIG. 3B-3C show normalized tissue oxygenation in EO771 (b) or A549 (c) tumor-bearing mice after injection of 2 mg/kg PPV or vehicle saline (readings taken every minute, and curve is average of 5 traces). P value was analyzed by linear mixed model with autoregressive correlation structure at T=30-40 minutes. […] Values are mean area covered by pimonidazole-positive cells evaluated from 20 images per animal+−SEM. P value was calculated with two-tailed two-sample t test. […] Curves represent mean tumor volumes+−SEM. P values were calculated against XRT with two-tailed two-sample t test.
(§4) Bar graphs represent the mean area covered by pimonidazole-positive cells evaluated from 20 images per animal+−standard error of the mean. P value was calculated against control with two-tailed two-sample t test. […] Mean volumes+−SEM. P values were calculated against XRT with two-tailed two-sample t test. *P<0.05; **P<0.01; ***P<0.001; ****P<0.0001; n.s., not significant.
Pimonidazole staining. […] […] […] The hypoxic fraction of each tumor was quantified by thresholding signal at 50% of the maximum signal on control sections. Area covered by pimonidazole-positive cells was evaluated from 20 images per animal and averaged. Error bars represent the standard deviation.

EO771 tumors [3] = assay: Tumor growth delay of EO771 tumors with radiation (XRT); assay type: in vivo, mice; settings: heterotopic EO771 flank tumors, nude mice, 2 mg/kg 35 minutes prior to 5 Gy
Procedure: as §3
FIGS. 4A-4G show tumor growth before and after radiosensitization with PPV. FIG. 4A-4B show in vitro radiation survival assessment of A549 cell line treated with 10 μm PPV in normoxia (FIG. 4A) and anoxia (FIG. 4B). […] Values represent averaged colony counts+−standard deviation. […] Values are mean tumor volumes+−SEM. […] Values are mean tumor volumes+−SEM. FIG. 4E-4F show tumor growth delay. When tumors reached 4-fold volume increase, groups receiving no treatment or PPV only (FIG. 4E); and XRT only or PPV followed by XRT (FIG. 4F), tumor weights were compared. Values are mean tumor weights+−SEM (n=8). P values were calculated with two-tailed two-sample t test. FIG. 4G are related to FIG. 4E-4F tumor growth delay. Representative images of orthotopic EO771 tumors harvested on day 11 after treatment with XRT (top) or 2 mg/kg PPV followed by XRT (bottom). *P<0.05; **P<0.01; ***P<0.001; ****P<0.0001; n.s., not significant.
as §4
Tumor Growth kinetics. 2×10^6 EO771 or 5×10^6 A549 cells were injected s.c. into the flanks of 6-week old female immunocompetent C57/B6 (EO771) or immunocompromised nu/nu (A549) mice. Caliper measurements of opposing diameter were used to calculate the tumor volumes. Upon reaching […], the tumors were visualized by cone beam CT and treatment plans calculated using SARRP software. X-rays were delivered with a single beam delivering 5 Gy using the Small Animal Research Radiation Platform (SARRP, Xstrahl). Tumor volumes were measured until the post treatment volume increased 3-fold. Error bars represent standard deviation.
Both models of transplanted tumors that were used for the oxygenation experiments of papaverine's effect on radiation response in vivo were investigated. The murine breast cancer line EO771 that is syngeneic with the BL6 strain of mice was used and transplanted it orthotopically into the mammary fat pad of immune-competent mice. Also used was the human A549 lung adenocarcinoma line that was transplanted into the flank of immune-deficient mice. The breast cancers grew to approximately 150 mm^3 and were then randomized to receive either no treatment, a single dose of either 5 Gy, or papaverine at 2 mg/kg followed 30-40 minutes later by 5 Gy.

[4] = test system: oxygen consumption (mitochondrial function); assay: Seahorse XF analysis of oxygen consumption in vitro, cell line not stated; assay type: cell-based
Procedure: as §2

[5] = test system: A549 NDUFV1 KO NDI1 cells; assay type: cell-based, Human; settings: 10 μM papaverine or 1 μM rotenone
Panc1 cells = assay: Seahorse OCR in Panc1 cell line; assay type: cell-based, Human; settings: increasing concentrations (sildenafil citrate 0, 5, 10, 20; 8-Bromo-cAMP 0, 10, 20)
Procedure: FIGS. 7A-7D show OCR and cellular toxicity data. […] Bars represent mean OCR and PDE10 inhibitory activities from at least 5 (OCR) or 3 (PDE) replicates. All experiments were repeated at least twice. […] Values are mean+−SEM.
as §2

T1 sequence (Q9Y233 267-1055): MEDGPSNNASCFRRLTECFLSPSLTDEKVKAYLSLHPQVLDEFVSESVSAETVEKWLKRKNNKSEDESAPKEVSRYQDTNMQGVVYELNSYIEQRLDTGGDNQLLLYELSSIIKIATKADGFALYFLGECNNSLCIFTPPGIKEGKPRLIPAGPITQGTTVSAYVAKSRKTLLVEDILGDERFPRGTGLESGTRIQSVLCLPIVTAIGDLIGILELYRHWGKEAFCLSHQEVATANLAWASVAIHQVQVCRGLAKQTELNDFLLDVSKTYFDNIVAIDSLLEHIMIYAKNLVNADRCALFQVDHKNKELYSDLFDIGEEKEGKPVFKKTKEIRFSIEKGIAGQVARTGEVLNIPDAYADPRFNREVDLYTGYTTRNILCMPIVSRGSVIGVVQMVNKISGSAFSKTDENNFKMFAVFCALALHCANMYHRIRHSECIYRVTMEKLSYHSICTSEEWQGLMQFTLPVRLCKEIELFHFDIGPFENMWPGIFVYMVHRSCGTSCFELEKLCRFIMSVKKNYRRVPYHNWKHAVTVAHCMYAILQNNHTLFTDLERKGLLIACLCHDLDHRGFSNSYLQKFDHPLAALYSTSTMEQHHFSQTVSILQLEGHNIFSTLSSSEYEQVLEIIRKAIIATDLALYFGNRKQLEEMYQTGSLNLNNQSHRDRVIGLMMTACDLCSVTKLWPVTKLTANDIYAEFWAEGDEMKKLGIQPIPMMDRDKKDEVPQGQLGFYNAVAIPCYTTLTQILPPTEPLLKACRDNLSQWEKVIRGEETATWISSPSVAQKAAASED

COc1cc2ccnc(Cc3cc(C)cc(C)c3)c2cc1OC [SMV-23]
Inhibitory activity OCR % of PPV (mitochondrial complex 1): 20.37 % of PPV | complex 1 activity compared to PPV (mitochondrial complex 1; compared to PPV): 20% | IC20 (PDE10A; PDE10A2 enzymatic assay, n=3 replicates, read-out: PDE IC20 (PDE10A IC20)): 0.5 µM | Inhibitory activity PDE10A % of PPV (PDE10A): 121.49 % of PPV | PDE10 activity compared to PPV (PDE10A; compared to PPV): 125% | IC50 (A549 cells; Homo sapiens, A549 cells by Seahorse, n=5 replicates, read-out: mitochondrial IC50 (OCR IC50)): 94 µM | cellular toxicity in vitro [1]: Neither of these compounds shows cellular toxicity | tumor hypoxia by pimonidazole staining (EO771 tumors [2]): no effect on hypoxia | growth delay compared to radiation alone (EO771 tumors [3]): no increase in growth delay

Cc1cccc(CN2CCN(C(c3ccccc3)c3ccc(Cl)cc3)CC2)c1 (centres unmarked) [meclizine]
inhibition of oxygen consumption / mitochondrial function in vitro [4]: effective at inhibiting oxygen consumption

[H]/N=C(/N)N/C(=N/[H])NCCc1ccccc1 [phenformin]
inhibition of oxygen consumption / mitochondrial function in vitro [4]: effective at inhibiting oxygen consumption

COc1ccccc1OCC(O)CN1CCN(CC(=O)Nc2c(C)cccc2C)CC1 (centres unmarked) [ranolazine]
inhibition of oxygen consumption / mitochondrial function in vitro [4]: effective at inhibiting oxygen consumption

C=C(C)[C@H]1Cc2c(ccc3c2O[C@@H]2COc4cc(OC)c(OC)cc4[C@@H]2C3=O)O1 [rotenone]
Inhibitory activity OCR % of PPV (mitochondrial complex 1): 193 % of PPV | Inhibitory activity PDE10A % of PPV (PDE10A): 0 % of PPV | reversibility of OCR inhibition in washout (A549 cells; 1 μM rotenone, media replaced): no restoration in 3 hours; also recorded: irreversible inhibitor | response of mitochondria (OCR) to drug [5]: resistant

CCCc1nn(C)c2c(=O)[nH]c(-c3cc(S(=O)(=O)N4CCN(C)CC4)ccc3OCC)nc12 [sildenafil citrate]
effect on OCR (Panc1 cells): no effect
